The source made the active and inactive calls. Rule as the data show it, for most assays here: actives have a measured EC50 and inactives only a lower limit.
Columns and labels:
[1] = NIH-3T3 fibroblast cytotoxicity, dose response, cytotoxicity control, cell-based, fluorescence, Alamar Blue, secondary assay (AID 2327); assay type: functional;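 also: NIH-3T3 mouse fibroblasts cultured with fluconazole at 8 µg/mL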
[2] = Luminescence Cell-Based Dose Confirmation HTS to Identify Activators of 5'UTR Stem-Loop Driven Alpha-Synuclein mRNA Translation in H4 Neuroglioblastoma Cells. [Related pubchem assays: 1829 (Project Summary), 1814 (Primary HTS)]; assay type: functional
[3] = C. albicans growth with fluconazole, confirmation, fluorescence, retest (AID 2467); assay type: functional, cell-based
[4] = molecular target: T1, Replicative DNA helicase DnaB (Mycobacterium tuberculosis, UniProt P9WMR3); assay: DnaB intein splicing inhibitors, dose response, biochemical, cell-free fluorescence (AID 449749); assay type: functional
T1 sequence (P9WMR3 whole entry): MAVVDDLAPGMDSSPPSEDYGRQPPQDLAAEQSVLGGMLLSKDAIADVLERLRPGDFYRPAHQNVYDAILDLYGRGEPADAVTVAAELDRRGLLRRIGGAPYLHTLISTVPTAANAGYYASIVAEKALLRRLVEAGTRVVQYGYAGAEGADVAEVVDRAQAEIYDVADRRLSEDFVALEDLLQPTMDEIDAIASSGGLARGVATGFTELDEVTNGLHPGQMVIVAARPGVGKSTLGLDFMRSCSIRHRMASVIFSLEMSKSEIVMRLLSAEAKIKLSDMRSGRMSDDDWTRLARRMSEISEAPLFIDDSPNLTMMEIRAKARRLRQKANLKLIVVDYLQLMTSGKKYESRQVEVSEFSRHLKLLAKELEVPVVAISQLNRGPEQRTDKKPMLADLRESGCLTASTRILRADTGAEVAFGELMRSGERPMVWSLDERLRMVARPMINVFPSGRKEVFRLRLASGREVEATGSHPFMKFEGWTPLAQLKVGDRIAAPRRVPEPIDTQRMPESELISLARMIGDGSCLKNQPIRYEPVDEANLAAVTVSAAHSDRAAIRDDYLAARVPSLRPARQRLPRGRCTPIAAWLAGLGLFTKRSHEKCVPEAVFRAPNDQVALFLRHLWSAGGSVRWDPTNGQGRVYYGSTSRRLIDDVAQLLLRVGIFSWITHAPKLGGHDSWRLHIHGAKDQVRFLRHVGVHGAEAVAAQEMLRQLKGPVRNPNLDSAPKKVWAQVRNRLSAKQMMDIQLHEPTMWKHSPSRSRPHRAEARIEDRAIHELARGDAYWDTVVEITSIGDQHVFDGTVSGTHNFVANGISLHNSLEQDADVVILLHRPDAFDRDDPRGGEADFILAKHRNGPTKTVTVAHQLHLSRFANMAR

Protein RecA = molecular target: T2, Protein RecA (Mycobacterium tuberculosis, UniProt P9WHJ3); assay: Fluorescence Cell-Free Homogeneous Dose Retest to Identify Inhibitors of RecA-Intein Splicing Activity. [Related pubchem assays (depositor defined):AID2097, AID2223, AID489010, AID492950]; assay type: functional
T2 sequence (P9WHJ3 whole entry): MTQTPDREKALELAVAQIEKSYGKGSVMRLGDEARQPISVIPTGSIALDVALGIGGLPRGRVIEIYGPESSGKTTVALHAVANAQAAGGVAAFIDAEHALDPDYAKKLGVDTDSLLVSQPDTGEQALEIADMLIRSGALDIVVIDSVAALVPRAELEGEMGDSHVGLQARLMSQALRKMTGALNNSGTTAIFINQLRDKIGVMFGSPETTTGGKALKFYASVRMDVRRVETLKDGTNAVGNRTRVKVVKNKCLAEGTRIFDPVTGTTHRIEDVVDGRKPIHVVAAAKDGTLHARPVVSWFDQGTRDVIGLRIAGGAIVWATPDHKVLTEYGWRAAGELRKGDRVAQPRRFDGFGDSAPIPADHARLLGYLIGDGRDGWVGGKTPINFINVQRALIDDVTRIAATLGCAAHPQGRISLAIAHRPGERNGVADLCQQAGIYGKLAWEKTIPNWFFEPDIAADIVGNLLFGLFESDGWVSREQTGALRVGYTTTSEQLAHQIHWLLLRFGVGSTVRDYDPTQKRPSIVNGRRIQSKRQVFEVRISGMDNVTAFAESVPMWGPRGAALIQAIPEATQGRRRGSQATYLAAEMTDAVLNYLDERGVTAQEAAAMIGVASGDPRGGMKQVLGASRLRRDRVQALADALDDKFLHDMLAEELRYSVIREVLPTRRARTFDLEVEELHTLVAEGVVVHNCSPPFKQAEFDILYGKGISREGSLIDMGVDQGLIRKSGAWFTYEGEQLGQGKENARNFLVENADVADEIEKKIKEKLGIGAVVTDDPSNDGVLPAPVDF

H4 = assay: Luminescence Cell-Based Dose Response HTS to Identify Activators of 5'UTR Stem-Loop Driven Prion Protein mRNA Translation in H4 Neuroglioblastoma Cells. [Related pubchem assays: 1829 (Project Summary), 1814 (Primary HTS)]; assay type: functional; details: Homo sapiens
Coagulation factor XII = molecular target: T3, Coagulation factor XII (Homo sapiens, UniProt P00748); assay type: functional;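 also: activated factor XIIa alpha cleaving a fluorogenic AMC peptide substrate; inhibitor potency from loss of enzyme activity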
T3 sequence (P00748 whole entry): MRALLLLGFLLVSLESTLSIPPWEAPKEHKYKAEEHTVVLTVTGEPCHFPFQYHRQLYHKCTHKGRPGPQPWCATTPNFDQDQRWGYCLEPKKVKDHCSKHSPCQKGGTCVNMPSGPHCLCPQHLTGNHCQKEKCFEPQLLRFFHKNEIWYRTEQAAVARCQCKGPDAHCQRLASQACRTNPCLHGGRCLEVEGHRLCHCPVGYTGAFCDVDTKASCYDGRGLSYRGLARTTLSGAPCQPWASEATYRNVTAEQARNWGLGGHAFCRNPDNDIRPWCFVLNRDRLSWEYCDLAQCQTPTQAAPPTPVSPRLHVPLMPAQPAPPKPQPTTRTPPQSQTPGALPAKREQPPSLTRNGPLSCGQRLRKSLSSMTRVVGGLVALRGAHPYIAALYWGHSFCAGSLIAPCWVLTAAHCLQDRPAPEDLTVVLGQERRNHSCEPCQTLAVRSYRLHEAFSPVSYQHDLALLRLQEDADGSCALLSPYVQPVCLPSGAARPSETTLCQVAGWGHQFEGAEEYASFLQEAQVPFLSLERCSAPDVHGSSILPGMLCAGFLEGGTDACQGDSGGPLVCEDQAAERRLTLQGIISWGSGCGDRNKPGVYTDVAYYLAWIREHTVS

[5] = HepG2 cell cytotoxicity, dose response, cytotoxicity control, plate reader, cherry-pick, antagonist series (AID 743416); assay type: functional, cell-based
[6] = LGR2 antagonists, dose response, cell-based, HEK293, CRE-luciferase reporter, cherry pick, set 2 (AID 743343); assay type: functional;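 also: transfected cells were stimulated with diluted bursicon conditioned medium after compound addition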
[7] = A549 cell cytotoxicity, dose response, cytotoxicity control, plate reader, cherry-pick, antagonist series (AID 743412); assay type: functional, cell-based
[8] = MC4R antagonists, dose response, counter-screen for LGR2 antagonist project, cell-based, plate reader, cherry pick (AID 743444); assay type: functional;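 also: transfected HEK 293 cells stimulated with alpha-MSH peptide; potency of inhibitors of the alpha-MSH evoked signal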
[9] = HEK293 cell cytotoxicity, dose response, cytotoxicity control, plate reader, cherry-picked samples (AID 743446); assay type: functional, cell-based
[10] = P. falciparum Dd2 growth inhibitors, dose response, SYBR Green, cherry-picked samples (AID 1159567); assay type: functional, cell-based
[11] = inhibitors of SNCA 5'UTR-driven reporter translation, confirmation, H4 neuroglioma cells, luminescence (AID 1988); assay type: functional, cell-based
[12] = Luminescence Cell-Based Dose Response HTS to Identify Inhibitors of 5'UTR Stem-Loop Driven Prion Protein mRNA Translation in H4 Neuroglioblastoma Cells. [Related pubchem assays: 1827 (Project Summary), 1813 (Primary HTS)]; assay type: functional
[13] = inhibitors of firefly luciferase expression or activity, dose response, H4 neuroglioma cells, luminescence (AID 1990); assay type: functional, cell-based
[14] = Luminescence Cell-Based Dose Response HTS to Identify Activators of Luciferase Translation or Activity in H4 […] Cells. [Related pubchem assays: 1829 (Project Summary), 1814 (Primary HTS)]; assay type: functional
[15] = molecular target: T4, Polyadenylate-binding protein 1 (Homo sapiens, UniProt P11940); assay: PABP1 MLLE–PAM2 interaction inhibitors, dose response, miRNA deadenylation inhibitor project, biochemical, fluorescence polarization, Cy5-PAM2 peptide, secondary (AID 602260); assay type: functional; details: read-out: IC50_Mean
T4 sequence (P11940 whole entry): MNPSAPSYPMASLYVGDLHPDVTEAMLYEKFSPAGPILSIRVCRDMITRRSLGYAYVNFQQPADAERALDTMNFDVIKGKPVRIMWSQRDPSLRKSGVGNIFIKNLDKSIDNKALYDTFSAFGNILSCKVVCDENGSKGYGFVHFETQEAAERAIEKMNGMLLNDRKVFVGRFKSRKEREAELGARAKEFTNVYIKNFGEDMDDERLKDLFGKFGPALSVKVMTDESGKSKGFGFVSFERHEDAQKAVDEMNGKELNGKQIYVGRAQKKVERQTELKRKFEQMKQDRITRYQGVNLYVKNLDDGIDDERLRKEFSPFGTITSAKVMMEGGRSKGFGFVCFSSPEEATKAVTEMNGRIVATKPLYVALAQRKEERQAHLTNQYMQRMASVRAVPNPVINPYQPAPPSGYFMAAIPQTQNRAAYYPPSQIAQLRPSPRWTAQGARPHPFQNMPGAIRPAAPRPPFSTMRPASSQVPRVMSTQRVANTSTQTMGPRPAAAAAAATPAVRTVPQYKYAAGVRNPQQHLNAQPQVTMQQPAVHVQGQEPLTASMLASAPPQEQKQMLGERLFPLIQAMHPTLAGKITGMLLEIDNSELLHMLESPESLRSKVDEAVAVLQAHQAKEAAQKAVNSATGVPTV

[16] = molecular target: T4, Polyadenylate-binding protein 1; assay: PABP1 MLLE–PAM2 binding inhibitor potency, dose response, biochemical, fluorescence polarization, FITC-PAM2 peptide (AID 602259); assay type: functional; details: read-out: IC50_Mean
[17] = molecular target: Induced myeloid leukemia cell differentiation protein Mcl-1 (Homo sapiens, UniProt Q07820); assay type: functional
Chain of Induced myeloid leukemia cell differentiation protein Mcl-1 (Q07820 whole entry): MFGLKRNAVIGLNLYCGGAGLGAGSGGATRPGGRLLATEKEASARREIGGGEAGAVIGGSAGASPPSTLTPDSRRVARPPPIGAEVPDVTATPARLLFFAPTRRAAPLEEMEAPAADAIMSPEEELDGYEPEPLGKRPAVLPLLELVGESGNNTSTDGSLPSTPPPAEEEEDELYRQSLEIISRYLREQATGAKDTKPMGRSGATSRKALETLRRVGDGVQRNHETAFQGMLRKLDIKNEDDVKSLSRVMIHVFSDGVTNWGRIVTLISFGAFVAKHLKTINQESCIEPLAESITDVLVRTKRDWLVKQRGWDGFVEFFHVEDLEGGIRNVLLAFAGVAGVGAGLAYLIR

[18] = cytotoxicity toward NIH3T3 fibroblasts, dose response, counter-screen, cell-based, ATP luminescence, mouse fibroblasts (AID 2010); assay type: functional;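 also: cells exposed to compound for about 90 hours before reading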
[19] = inhibitors of intracellular T. cruzi replication, confirmation, NIH3T3 host cells, beta-gal luminescence (AID 2044); assay type: functional, cell-based;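 also: intracellular parasites grown in NIH/3T3 mouse fibroblasts as host cells; luminescent beta-galactosidase reporter signal from transgenic T. cruzi replicating inside host cells; inhibitors lower the luminescence signal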
BJ [20] = assay: cytotoxicity toward BJ-TERT-LT-ST fibroblasts, dose response, cell-based, RAS-independent, luminescence (AID 1935); assay type: functional; details: Homo sapiens;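 also: BJ fibroblasts immortalized with TERT plus LT and ST oncogenes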
BJ [21] = assay: cytotoxicity toward BJ-TERT fibroblasts, dose response, cell-based, RAS-independent, luminescence (AID 1933); assay type: functional; details: Homo sapiens
BJ [22] = assay: cells; assay type: functional, cell-based; details: Homo sapiens
[23] = cytotoxicity toward DRD oncogenic fibroblasts, dose response, cell-based, non-viral oncogenic, luminescence (AID 1934); assay type: functional; details: Homo sapiens

O=c1c(Cl)c(NCCCO)cnn1-c1nc2ccccc2[nH]1
EC50 [1]: 9.04 µM (inconclusive)
EC50 [2]: 25.2 µM (active)
EC50 [3]: 3.47 µM (active)
AC50 [4]: > 380 µM (inactive)
EC50 (Protein RecA): 7.41 µM (active)
EC50 (H4): 88 µM (active)

COc1ccccc1C(=O)n1nc(-c2cccnc2)nc1N
IC50 (Coagulation factor XII): 0.503 µM (active)

O=C(COc1ccc2c(c1)OCO2)Nc1nccs1
AC50 [5]: > 52 µM (inactive)
AC50 [6]: 7.13 µM (active)
AC50 [7]: > 52 µM (inactive)
AC50 [8]: 10.2 µM (active)
AC50 [9]: 20.6 µM (active)

Cc1ccc(-c2ccccc2[C@H]2[C@@H](C#N)N(C(=O)NC3CCCC3)[C@H]2CO)cc1
AC50 [10]: 7.19 µM (active)

CCOc1ccccc1/C=C(/NC(=O)c1ccccc1)C(=O)N(CC)CC
EC50 [11]: > 120 µM (not active)
EC50 [12]: > 120 µM (not active)
EC50 [13]: > 120 µM (not active)

O=C(Cc1ccccc1[N+](=O)[O-])Nc1ccccc1C(=O)N1CCCC1
IC50 (Coagulation factor XII): > 50 µM (inactive)

O=C(CC(SCCO)c1ccc2c(c1)OCO2)c1cccs1 (stereo unspecified)
EC50 [2]: 3.91 µM (active)
EC50 [14]: 119 µM (active)
IC50 [15]: > 66 µM (inactive)
IC50 [16]: > 66 µM (inactive)
EC50 (H4): 9.36 µM (active)

COc1cc(OC)cc(C(=O)NCC(=O)Nc2ccc(-c3ccccc3)cc2)c1
EC50 [2]: > 60 µM (not active)
EC50 [14]: 55.6 µM (active)
EC50 (H4): 9.12 µM (active)

CCOC(=O)c1nn(-c2ccc3c(c2)OCO3)cc1O
EC50 [2]: 16.6 µM (active)
EC50 [14]: 15.7 µM (active)
EC50 (H4): 23.9 µM (active)

COc1ccccc1NC(=O)N1CC[C@H]2[C@@H]1c1cc(C#Cc3ccc(F)cc3)ccc1N(C)[C@H]2CO
AC50 [10]: 4.14 µM (active)

COc1ccc(CCNC(=O)CN(c2ccc(OC)c(OC)c2)S(C)(=O)=O)cc1
IC50 [17]: 26 µM (not active)

CCn1c(O)cc(=O)nc1SCC(=O)N1CCCCC1
IC50 (Coagulation factor XII): > 50 µM (inactive)

O=[N+]([O-])c1nn(-c2ccccc2)[n+]([O-])c1NC1CCN(Cc2ccccc2)CC1
EC50 [11]: 10.9 µM (active)
EC50 [12]: > 120 µM (not active)
EC50 [18]: > 60 µM (not active)
EC50 [19]: 0.25 µM (active)
EC50 [13]: 14 µM (active)

O=C(NC(=O)c1csnn1)Nc1ccccc1Cl
EC50 [2]: 5.61 µM (active)
EC50 [14]: 94 µM (active)
EC50 (H4): > 60 µM (not active)

[O-][n+]1c2c([n+]([O-])c3c1CCCC3)CCCC2
EC50 [11]: > 120 µM (not active)
EC50 [12]: > 120 µM (not active)
EC50 [13]: > 120 µM (not active)

O=C(CSc1nc2ccccc2s1)Nc1cc(S(=O)(=O)N2CCOCC2)ccc1O
IC50 [17]: 1.75 µM (active)

Cc1ccc(C(=O)Nc2ccc3c(c2)OCCO3)c(C)c1
AC50 [5]: > 52 µM (inactive)
AC50 [6]: 2.74 µM (active)
AC50 [7]: 44.6 µM (active)
AC50 [8]: 2.42 µM (active)
AC50 [9]: > 52 µM (inactive)

Cc1ccc(C(CC(=O)NCCCN(C)C)c2ccc(OC(C)C)cc2)cc1 (stereo unspecified)
IC50 (Coagulation factor XII): > 50 µM (inactive)

Cc1cccc(N2C(=O)NC(=O)/C(=C\c3c(-c4ccccc4)[nH]c4ccccc34)C2=O)c1
EC50 (BJ [20]): 11.5 µM (inconclusive)
EC50 [2]: > 120 µM (not active)
EC50 [14]: 0.511 µM (active)
EC50 (BJ [21]): 3.69 µM (active)
EC50 (BJ [22]): 58.6 µM (active)
EC50 [23]: 3.33 µM (active)
EC50 (H4): > 120 µM (not active)

— ChEMBL document CHEMBL1201862, “PubChem BioAssay data set” (2004)
